Data: PubChem BioAssay (NCI)
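1) Cells in 96-well plates. 2) Compound, 48 h, 5 concentrations. 3) Linear interpolation between surrounding doses. 4) Unreached endpoint = highest concentration. At the TGI there is no net growth.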

Assays:
Experiment in all cases: growth of human tumour cells (NCI), 48 h
COLO 205 colon = system: COLO 205 colon
MDA-N = system: MDA-N
LOX IMVI melanoma = system: LOX IMVI melanoma
SK-MEL-2 melanoma = system: SK-MEL-2 melanoma
T-47D breast = system: T-47D breast
HCT-15 colon = system: HCT-15 colon
NCI/ADR-RES ovarian = system: NCI/ADR-RES ovarian
IGROV1 ovarian = system: IGROV1 ovarian
NCI-H522 lung = system: NCI-H522 lung
TK-10 renal = system: TK-10 renal

Row | Structure (SMILES) | TGI (COLO 205 colon) | TGI (MDA-N) | TGI (LOX IMVI melanoma) | TGI (SK-MEL-2 melanoma) | TGI (T-47D breast) | TGI (HCT-15 colon) | TGI (NCI/ADR-RES ovarian) | TGI (IGROV1 ovarian) | TGI (NCI-H522 lung) | TGI (TK-10 renal)
1 | CC1CCC2(OC1)OC1C(O)C3C4CCC5CC(OC6OC(CO)C(OC7OC(CO)C(O)C(OC8OCC(O)C(O)C8O)C7OC7OC(CO)C(O)C(OC8OC(CO)C(O)C(O)C8O)C7O)C(O)C6O)C(O)CC5(C)C4CCC3(C)C1C2C (stereo not given) | 3.6 µM | 7.94 µM | 12.1 µM | 17.8 µM | 10.4 µM | 12.2 µM | 13.6 µM | 6.7 µM | 3.79 µM | 6.1 µM
2 | Cc1ncc(COP(=O)(O)O)c(/C=C2\SC(=S)NC2=O)c1O | > 100 µM | > 100 µM | > 100 µM | > 100 µM | > 100 µM | > 100 µM | > 100 µM | > 100 µM | > 100 µM | > 100 µM
3 | CCCCCCCCC#CCCCCCCCCCC[C@@H]1C(=O)O[C@H](C)[C@@H]1O (tested in a mixture with another compound) | > 100 µM | 79.6 µM | 28.8 µM | 46.4 µM | > 100 µM | > 100 µM | 23.8 µM | 32.7 µM | 18.8 µM | 40.8 µM
4 | CCNc1cc2c3c(c1)CCN3CCC2 | > 10 µM | > 10 µM | > 10 µM | > 10 µM | > 10 µM | > 10 µM | > 10 µM | > 10 µM | > 10 µM | > 10 µM
5 | O=C1NC(N2CCOCC2)=N/C1=C\c1ccc(O)cc1 | > 100 µM | > 100 µM | > 100 µM | > 100 µM | > 100 µM | > 100 µM | > 100 µM | > 100 µM | > 100 µM | > 100 µM
6 | COc1cccc(C2c3cc4c(cc3OC(Nc3ccccc3)C2C)OCO4)c1O (stereo not given) | > 35.6 µM | 6.98 µM | 18.9 µM | 51.9 µM | > 75.4 µM | 48.4 µM | > 100 µM | 35.5 µM | 20.6 µM | 64.2 µM
7 | CC(C)CCOC(=O)NC(Nc1ccc(F)cc1)(C(F)(F)F)C(F)(F)F | 42.1 µM | > 100 µM | > 100 µM | > 100 µM | 78.5 µM | > 100 µM | > 100 µM | > 100 µM | 69.4 µM | > 100 µM
8 | COc1ccccc1NC(=O)CC(=O)NN | > 100 µM | > 100 µM | > 100 µM | > 100 µM | > 100 µM | > 100 µM | > 100 µM | > 100 µM | > 100 µM | > 100 µM
9 | O=c1c2nc(-c3ccccc3)oc2n(-c2ccccc2)c(=O)n1-c1ccccc1 | > 46.4 µM | > 46.4 µM | > 46.4 µM | > 46.4 µM | > 46.4 µM | > 46.4 µM | > 31.6 µM | 41 µM | 39.1 µM | 21.5 µM
10 | COc1cc(N(CCC#N)CCC#N)ccc1/C=N\NC(=O)c1ccc(C)cc1 | > 100 µM | > 100 µM | > 100 µM | 32.6 µM | > 100 µM | > 100 µM | > 100 µM | > 100 µM | > 100 µM | > 100 µM
11 | CCOC(=O)CCC(C(=O)OCC)n1nnc2cc(Nc3c(C)[n+]([O-])c4cc(F)c(OCC)cc4[n+]3[O-])ccc21 (stereo not given) | > 100 µM | > 100 µM | > 100 µM | > 100 µM | > 100 µM | > 100 µM | > 100 µM | > 100 µM | > 100 µM | > 100 µM
12 | O=C(Nc1nn[nH]n1)c1nc(-c2ccccc2)cc(=O)[nH]1 | > 100 µM | > 100 µM | > 100 µM | > 100 µM | > 100 µM | > 100 µM | > 100 µM | > 100 µM | > 100 µM | > 100 µM
13 | CCOC(=O)Nc1ccc(S(=O)(=O)Nn2cnnc2)cc1 | > 100 µM | 73.9 µM | > 100 µM | > 100 µM | > 100 µM | > 100 µM | > 100 µM | > 100 µM | > 100 µM | > 100 µM
14 | CC(C)(C)C1=C(Br)C(O)(C(C)(C)C)OP1(=O)c1ccccc1 (stereo not given) | > 100 µM | > 100 µM | > 100 µM | > 100 µM | > 100 µM | > 100 µM | > 100 µM | > 100 µM | > 100 µM | > 100 µM
15 | Cc1nc(Nc2ccccc2Cl)sc1C(=O)CC(=O)C(N)=O | > 100 µM | > 100 µM | > 100 µM | > 100 µM | > 100 µM | > 100 µM | > 100 µM | > 100 µM | 6.79 µM | > 100 µM
16 | C[C@H](C1CC2(C)OC2(C)C(=O)O1)[C@H]1CC[C@H]2[C@@H]3[C@@H]4O[C@@H]4[C@@]4(O)CC=CC(=O)[C@]4(C)[C@H]3CC[C@]12C (stereo not given in full) | > 50 µM | > 50 µM | > 50 µM | > 50 µM | > 50 µM | > 50 µM | > 50 µM | > 50 µM | > 50 µM | > 50 µM
17 | CC(=O)OCC1OC(n2c(C)c(C)c(C)c(C#N)c2=S)C(OC(C)=O)C(OC(C)=O)C1OC(C)=O (stereo not given) | > 100 µM | > 100 µM | > 100 µM | 78.2 µM | > 100 µM | > 100 µM | > 100 µM | > 100 µM | 69.1 µM | > 100 µM
18 | COC(=O)Nc1nc2ccc(NC(=O)c3ccc(I)cc3)cc2[nH]1 | > 100 µM | > 100 µM | > 100 µM | > 100 µM | > 100 µM | > 100 µM | > 100 µM | > 100 µM | > 100 µM | > 100 µM
19 | CCN(CC)C(=O)CCN1CC1 | > 10 µM | > 10 µM | > 10 µM | > 10 µM | > 10 µM | > 10 µM | > 10 µM | > 10 µM | > 10 µM | > 10 µM
20 | N#Cc1c(N)nc2c3c1NC(=O)C(C(N)=O)C3c1ccccc1O2 (stereo not given) | > 100 µM | > 100 µM | > 100 µM | > 100 µM | > 100 µM | > 100 µM | > 100 µM | 79.8 µM | 70.6 µM | > 100 µM
21 | NC(=S)NC/C=C/Cl | > 100 µM | > 100 µM | > 100 µM | > 100 µM | > 100 µM | > 100 µM | > 100 µM | > 100 µM | > 100 µM | > 100 µM
22 | COC1=CC(=O)N(C)C(O)C1(C#N)OC1OC(CO)C(O)C(O)C1O (stereo not given) | > 100 µM | > 100 µM | > 100 µM | > 100 µM | > 100 µM | > 100 µM | > 100 µM | > 100 µM | > 100 µM | > 100 µM
23 | C#CCOC(=O)c1ccc(OC(C)=O)cc1 | > 100 µM | > 100 µM | > 100 µM | > 100 µM | > 100 µM | > 100 µM | > 100 µM | > 100 µM | > 100 µM | > 100 µM
24 | CCOC1=C(c2ccccc2)N2CCCCC2O1 (stereo not given) | 4.7 µM | 21.7 µM | 13.8 µM | 7.99 µM | 6.82 µM | 98.6 µM | > 96.4 µM | > 51.4 µM | 13.4 µM | > 38.6 µM
25 | NCCSCCC(=O)O | > 74.3 µM | > 100 µM | > 93.7 µM | > 100 µM | > 84.2 µM | > 100 µM | > 100 µM | > 100 µM | > 100 µM | > 100 µM
